Measurements: patent publication US20130102009A1, “SIRTUIN ACTIVATORS AND ACTIVATION ASSAYS” (priority 2010, published 2013)
Where “and” joins values, the source holds several entries; their conditions need not be identical. Identical values can stand only once.

How the values were obtained:
SIRT1 [1] = biological target: T1, SIRT1 (Homo sapiens, UniProt Q96EB6); assay: Mass spectroscopic kinetic assay of SIRT1-catalyzed deacetylation of 20mer peptides; type: biochemical
T1 sequence (Q96EB6 1-747): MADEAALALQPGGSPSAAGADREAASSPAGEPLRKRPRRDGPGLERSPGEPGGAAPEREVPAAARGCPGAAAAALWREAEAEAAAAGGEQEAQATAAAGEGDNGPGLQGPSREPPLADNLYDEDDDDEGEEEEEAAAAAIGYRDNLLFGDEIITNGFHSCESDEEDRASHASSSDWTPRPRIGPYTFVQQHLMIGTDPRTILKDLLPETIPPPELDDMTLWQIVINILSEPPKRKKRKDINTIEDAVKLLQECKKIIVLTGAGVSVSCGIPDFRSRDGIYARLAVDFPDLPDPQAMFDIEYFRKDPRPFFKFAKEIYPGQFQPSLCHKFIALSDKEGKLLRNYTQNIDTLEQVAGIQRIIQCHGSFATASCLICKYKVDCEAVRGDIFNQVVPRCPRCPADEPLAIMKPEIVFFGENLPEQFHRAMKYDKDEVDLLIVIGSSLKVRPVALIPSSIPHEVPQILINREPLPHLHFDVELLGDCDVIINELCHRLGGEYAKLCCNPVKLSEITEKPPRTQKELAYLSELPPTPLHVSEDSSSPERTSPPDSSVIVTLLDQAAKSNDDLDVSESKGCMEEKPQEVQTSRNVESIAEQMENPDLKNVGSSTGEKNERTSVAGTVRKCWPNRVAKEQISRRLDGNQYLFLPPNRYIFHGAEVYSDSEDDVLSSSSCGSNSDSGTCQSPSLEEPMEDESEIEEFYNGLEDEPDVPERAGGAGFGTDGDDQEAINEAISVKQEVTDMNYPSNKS

SIRT1 [2] = biological target: T1, SIRT1; assay: Continuous PNC1-GDH-coupled assay of SIRT1-catalyzed deacetylation of Ac-Arg-His-Lys-Lys^Ac-X with STACs; type: biochemical; details: for Relative Velocity, X=Ala-NH2: Ac-Arg-His-Lys-Lys^Ac-Ala-NH2; for Relative Velocity, X=NH2: Ac-Arg-His-Lys-Lys^Ac-NH2
Method: Bovine glutamate dehydrogenase (GDH), α-ketoglutarate, NADH and NAD^+ were from Sigma Chemical Company. […] The nicotinamidase PNC1 was prepared as described by Denu and colleagues (Smith et al. (2009) Anal Biochem 394, 101-109). To determine the interaction of STACs with SIRT1 two kinetic methods were employed. […] (2007) Nature 450, 712-716). The other, used with peptides of general structure […], used a continuous, enzyme-coupled method reported previously (Smith et al. (2009) Anal Biochem 394, 101-109), in which the SRT1 product nicotinamide is first converted into nicotinic acid and ammonia by the action of PNC1, and the ammonia then used by GDH to convert α-ketoglutarate into glutamate. This reaction occurs with oxidation of NADH to NAD^+ which is accompanied by a change in absorbance at 340 nm (Δε340=-6,200 M^-1 cm^-1). The kinetic experiments used to characterize activators were run on a Perkin Elmer Lambda 25 spectrophotometer equipped with a water-jacketed, eight-cell changer maintained at 25° C. In a typical kinetic experiment, all components of the reaction solution except SIRT1 were added to a 1 mL cuvette and allowed to reach thermal equilibrium. Final concentrations of the coupling system components were: 1 μM PNC1, 0.23 mM NADH, 3.4 mM α-ketoglutarate, and 20 U/mL bovine GDH. This solution also contained peptide substrate, NAD^.0., and activator, at concentrations indicated in the text. The final DMSO concentration was kept constant at 1%, and the buffer used in these experiments was 50 mM HEPES, 150 mM NaCl, pH 7.5. While the system was reaching thermal equilibrium, the absorbance was monitored to provide an accurate estimate of the background rate, which was subtracted from the reaction rate after the addition of SIRT1. Activator titrations were plotted as relative velocity (i.e., the ratio of vx, velocity in the presence of activator X, to vo, velocity in the absence of activator) vs. [X]o, initial concentration of activator, and fit by nonlinear least-squares to the mechanism-independent expression for enzyme activation of […] the maximum relative velocity (i.e., vx/vo at infinite [X]o) and EC50 is the activator concentration at which vx/vo=(RVmax-1)/2. EC50 is a function of the kinetic mechanisms of both catalysis and activation, and the concentrations of substrates.

[3] = [SRT]o = 5 μM, [peptide]o ≦ Km, [NAD+] = 70 μM
[4] = full titration, 3-5 independent experiments

SMILES | RVmax (maximum relative velocity) (SIRT1 [1]; substrate TAMRA-peptide, fit to eq (1)) | EC50 (SIRT1 [1]; substrate TAMRA-peptide, fit to eq (1), read-out: EC50 (Kx) for activation of SIRT1-catalyzed deacetylation of TAMRA-peptide) | Effect on the deacetylation of des(biotin,TAMRA)-peptide (SIRT1 [1]; substrate des(biotin,TAMRA)-peptide) | RVmax for activation of the deacetylation of desTAMRA-peptide (SIRT1 [1]; substrate desTAMRA-peptide, fit to eq (1)) | RVmax for activation of the deacetylation of desTAMRA-peptide (SIRT1 [1]; substrate desTAMRA-peptide, fit to eq (1), listed as 22) | EC50 (SIRT1 [1]; substrate desTAMRA-peptide, fit to eq (1), read-out: EC50 for activation of the deacetylation of desTAMRA-peptide) | Ki,app for inhibition of the deacetylation of p53-20 mer (SIRT1 [1]; substrate p53-20 mer, RV=1/(1+([X]o/Ki,app))) | Ki (SIRT1 [1]; substrate p53-20 mer, RV=1/(1+([X]o/Ki,app)), read-out: Ki,app for inhibition of the deacetylation of p53-20 mer) | Relative Velocity, X=AMC (SIRT1 [2]; [SRT]o = 5 μM, [peptide]o ≦ Km, [NAD+] = 70 μM, Ac-Arg-His-Lys-Lys^Ac-AMC, listed as 22) | Relative Velocity, X=Ala-NH2 (SIRT1 [2]; [3]) | Relative Velocity, X=NH2 (SIRT1 [2]; [3]) | Relative Velocity, X=NH2 (SIRT1 [2]; [SRT]o = 5 μM, [peptide]o ≦ Km, [NAD+] = 70 μM, listed as 22) | Relative Velocity, X=Trp-NH2 (SIRT1 [2]; [SRT]o = 5 μM, [peptide]o ≦ Km, [NAD+] = 70 μM, Ac-Arg-His-Lys-Lys^Ac-Trp-NH2, listed as 22) | EC1.5 for activation of deacetylation of Ac-Arg-His-Lys-Lys^Ac-X, X=AMC (SIRT1 [2]; [4]) | EC1.5 for activation of deacetylation of Ac-Arg-His-Lys-Lys^Ac-X, X=TrpNH2 (SIRT1 [2]; [4]) | EC1.5 for activation of deacetylation of Ac-Arg-His-Lys-Lys^Ac-X, X=PheNH2 (SIRT1 [2]; [4]) | RVmax for activation of deacetylation of Ac-Arg-His-Lys-Lys^Ac-X, X=TrpNH2 (SIRT1 [2]; [4]) | EC50 (SIRT1 [2]; full titration, 3-5 independent experiments, read-out: EC50 for activation of deacetylation of Ac-Arg-His-Lys-Lys^Ac-X, X=TrpNH2)
CCCCc1nc(NC2CCNCC2)cc(C(=O)Nc2ccccc2-c2nc3cc(COC4CCNCC4)cnc3s2)n1 [Compound 10, 2-butyl-6-(piperidin-4-ylamino)-N-(2-(6-((piperidin-4-yloxy)methyl)thiazolo[5,4-b]pyridin-2-yl)phenyl)pyrimidine-4-carboxamide] | 6.8±0.3 | 3.9 ± 0.5 µM | none activate | ~2.3 | 2.6 ± 0.1 | ~2 µM and 1.7 µM | inhibit | 9 µM | activates | 0.3 | 0.6 | inhibits | activates | 3.1 µM | 1.9 µM |  |  | 
COc1cc(C(=O)Nc2ccccc2-c2cn3c(CN4CCNCC4)csc3n2)cc(OC)c1OC [SRT1460] |  |  |  |  |  |  |  |  |  | 1.1 | 0.8 |  |  |  | 5.0 µM | 26.0 µM | 4.1±0.1 | 27 ± 8 µM
